# Patent US20090317419A1, “Tetramers” (Duke University, priority 2008, published 2009)
# Values joined by “and” are separate entries in the source; they are usually repeats but may differ in a detail not shown here. Identical values can stand only once. Like-named read-outs stand apart in the source and are kept apart here. Ends that are not written are not given here. * marks the point of attachment. Biotin = O=C1N[C@H]2[C@H](CS[C@H]2CCCCC(=O)*)N1
# How the values were obtained:
# 7B2 cells = details: flow cytometry
# Experimental: (§1) Use of antibody-coated beads and cell lines for tetramer quality control. Tetramer stocks were diluted to twice the desired final concentration in PBS containing 1% BSA. An equal volume of beads or cells at 5×10^5 up to 2×10^6 per sample were mixed with tetramer and incubated (4° C.×30 min). Beads or cells were washed with PBS+1% BSA before being fixed in 2% methanol-free formaldehyde (Polysciences, Inc, Warrington, Pa.) in PBS. Samples were stored at 4° C. prior to being analyzed by flow cytometry (BD LSR II, Becton Dickinson, Mountain View, Calif.). Data were analyzed using FlowJo (Tree Star, Ashland, Oreg.). For tetramer titration 40-80 ng tetramer per 10^6 cells/beads was serially diluted over 8-12 points. Optimal concentrations determined by this method were used for subsequent experiments. For cold competition experiments the incubation step was performed by staining with 10-fold excess unlabeled tetramer (4° C.×30 min) prior to the addition of APC-labeled tetramer. For cell dilution experiments, a mixture of mAb cell lines was made and then 1:10 serial dilutions of cells prepared. For cross competition experiments, mixtures of cells were prepared and then stained singly with anti-IgG reagents or tetramer, or the cells were doubly stained with both reagents either sequentially or concurrently.
# [1] = tested on: mAb 7B2 (anti-gp41 immunodominant region); details: SPR, mAb 7B2 captured
# Experimental: (§2) Surface Plasmon Resonance (SPR) measurements of tetramer binding to peptide epitopes. Tetramer binding assays were carried out on a BIAcore 3000 (BIAcore/GE Healthcare, Piscataway, N.J.) instrument using mAbs against each specific B cell epitope.
# (§3) Each mAb (about 1000 RU) was first captured on anti-human Fc mAb (Pierce, Rockford, Ill.) immobilized on a CM5 sensor chip. Approximately 3000 RU of anti-human Fc mAb was covalently coupled to each flow cell of the sensor chip as described before (Alam et al, Journal of Immunology 178:4424-4435 (2007)). Each B cell tetramer was injected over its epitope specific mAb or a control surface immobilized with irrelevant mAb. For each tetramer binding curve, non-specific binding signals obtained from the control surface were subtracted. The binding assay was monitored at 25° C. and using PBS, pH 7.4, as the running buffer. The BIAevaluation 3.0 software (BIAcore/GE Healthcare, Piscataway, N.J.) was used for SPR binding data analyses.
# mAb 7B2 on beads = details: flow cytometry
# Experimental: (§4) Antibody-coated beads. Carboxyl-polystyrene beads (3.0-3.4 μm) (Spherotech, Inc., Lake Forest, Ill.) were resuspended in 0.01 M sodium acetate buffer (pH 5.0) and reacted (20° C.×1 hr) with 1-ethyl-3-(3-dimethylaminopropyl) carbodiimide hydrochloride (EDC) (Sigma-Aldrich, Co., St. Louis, Mo.) at a ratio of 3.1 mg beads to 1 mg EDC. Beads were washed with sodium acetate buffer, resuspended in a minimal volume before adding purified mAb in the same buffer (ratio of 16 mg beads to 1 mg mAb), incubated (20° C.×2 hrs), then washed with sodium acetate buffer. Beads were resuspended at 5% in PBS containing 1% bovine serum albumin and 0.02% sodium azide.
# as §1
# 2F5 mAb = experiment: Binding of alanine substituted gp41 MPER tetramers to 2F5 (antibody-coated beads and SPR); parameters: species or system human; details: flow cytometry on antibody-coated beads and SPR
# Experimental: (§5) Data were analyzed using FlowJo (Tree Star, Ashland, Oreg.).
# (§6) Development of gp41 MPER tetramers specific for neutralizing vs. non-neutralizing antibodies. […] Therefore, the next question asked was whether gp41 MPER tetramers could be made that preferentially react with either of these two prototype antibodies that would make it possible to discriminate between neutralizing 2F5-like gp41 MPER antibodies and non-neutralizing 13H11-like MPER antibodies. To address this issue, a series of gp41 MPER tetramers were made with alanine substitutions along the primary sequence (see Table 8) and assayed for the binding of 13H11 or 2F5 by flow cytometry on antibody-coated beads and by SPR (FIGS. 6C and 6D). […] Thus, tetramers made with the A13 or A15 mutant will bind B cells only with surface Ig similar to the non-neutralizing 13H11 antibody while tetramers made with the A14, A18, or A20 mutants will bind B cells only with surface Ig with specificities similar to the neutralizing 2F5 antibody.
# gp41 ID tetramer = experiment: SPR, captured mAb, tetramer injected
# 13H11 mAb = experiment: Binding of alanine substituted gp41 MPER tetramers to 13H11 (antibody-coated beads and SPR); parameters: species or system mouse; details: flow cytometry on antibody-coated beads and SPR
# Experimental: as §5, §6
# F39F cells = details: flow cytometry
# Experimental: as §1
# mAb F39F (anti-gp120 V3) = details: SPR, mAb F39F captured, 25° C., PBS pH 7.4
# Experimental: as §2, §3
# [2] = tested on: V3 loop mAbs 7B9 and F39F on beads; details: flow cytometry
# Experimental: as §4, §1
# B.con03 V3 tetramer = experiment: SPR, captured mAb, tetramer injected
# 62.19 V3 tetramer [3] = experiment: SPR, captured mAb, tetramer injected
# 62.19 V3 tetramer [4] = target: 62.19 V3 tetramer
# [5] = tested on: B cell subsets from naive C57BL/6 mice
# Experimental: (§7) Cell isolation, serum collection, and PBMC isolations. Heparinized or non-heparanized blood was collected sub-mandibularly 10 days after immunizations. For preparation of peripheral blood lymphocytes for B cell tetramer analysis, PBMC were isolated from blood collected in heparinized tubes (0.2 ml) using Lympholyte M (Cederlane). For Luminex and ELISA assays, sera was isolated from non-heparanized blood and stored at −20° C. until use. Spleen, bone marrow (BM), and peritoneal cavity (PerC) cells were also collected. For most immunizations, tissues were harvested after the 4th boost, except for kinetic studies, in which tissues from mice were harvested after 1, 3 or 7 days after a single immunization. For BM preparations, femora and tibiae were removed, aspirated with tissue medium using 23 gauge needles, filtered with 70 μm cell strainers (BD labware), and RBC-depleted using Tris-buffered ammonium chloride lysis. For splenocyte preparation, spleens were harvested and dissociated into single-cell suspensions either by passage through 70 μm cell strainers in tissue medium or by using frosted glass slides, and blood erythrocytes were depleted with ammonium chloride lysis. For isolation of peritoneal cells, peritoneal cavities of sacrificed mice were lavaged by injection with 10 ml of PBS, followed by gentle massage of the abdomen, and withdrawal of the peritoneal exudates. BM, splenic, and peritoneal single cell suspensions were centrifuged at 1500 rpm for 5 min and resuspended in 5, 10, and 1 ml of tissue media, respectively, for cell counts and immunofluorescence staining. Cell counts were performed in duplicate on a Coulter ZI Dual Threshold Cell Counter (Coulter).
# (§8) Antibodies and flow cytometry. Immunofluorescent staining of single cell suspensions (≧2×10^6) was conducted using pre-mixed combinations of fluorochrome-labeled antibodies and APC-conjugated B cell tetramers at empirically-determined optimal concentrations. All antibodies were from BD unless otherwise stated. […] Other reagents included biotinylated antibodies against dump channel markers: Thy1 (Ox7; Abcam), F4/80 (BM8; Abcam), CD11c (clone HL3), Gr-1 (clone RB6-8C5), TER-119, and NK-1.1 (clone PK136), secondary staining SA-Texas Red conjugate; v-amine live/dead violet dye (Molecular Probes), and Fc block (anti-CD16/32; clone 2.4G2).
# (§9) Staining was conducted at 4° C. in several sequential steps in FACS staining buffer (1×PBS with 2% FCS, 0.1% NaN3), washing twice between steps. First, cells were incubated with v-amine live/dead dye for 15 min. Next, cells were stained with APC-labeled tetramers for 30 min. Where applicable, this was preceded by addition of cold tetramer at 10 fold molar excess for 1 h. Finally, cells were stained with Fc block for 30 min, followed by incubation with combinations of primary antibody cocktails for 30 min, and secondary staining with SA-Texas Red for 30 min.
# (§10) Data were acquired using an LSRII flow cytometer and Cell Quest software (BD Immunocytometry systems). A minimum of 250000 events were acquired per sample. FACS Analysis was performed using FlowJo software (Tree Star). For analysis, single cells were positively gated based on their forward scatter height vs. forward scatter area and side scatter height vs. side scatter area profiles, lymphocytes were then positively gated based on their forward and side scatter profile (live lymphocyte gate), residual dead cells were excluded with negative gating on v-amine live/dead dye, and all irrelevant non-B cells were excluded with negative gating on dump markers Thy1, F4/80, CD11c, Gr-1, TER-119, and NK-1.1.
# To examine if gp41 2F5 MPER epitope reactivity across B cell subsets mapped similarly on the IgH^b allotype, reactivity to gp41 2F5 MPER tetramers was measured by measuring the percentage of APC-labeled gp41 2F5 MPER tetramer-reactive cells in C57BL/6 bone marrow, splenic, and peritoneal B cell subsets (Table 10).
# [6] = tested on: total naïve splenic BALB/c B cells; details: APC-labeled tetramer
# Experimental: as §7, §8, §9, §10
# gp41 MPER tetramer = experiment: SPR, captured mAb, tetramer injected
# gp41 MPER tetramer, sequence (P22629 37-163 limits assumed): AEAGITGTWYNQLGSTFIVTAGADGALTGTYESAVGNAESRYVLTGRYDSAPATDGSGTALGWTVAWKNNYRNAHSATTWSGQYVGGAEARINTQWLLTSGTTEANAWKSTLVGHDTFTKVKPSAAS
# 62.19 V3 tetramer, sequence (P22629 37-163 limits assumed): as above
# gp41 ID tetramer, sequence (P22629 37-163 limits assumed): as above
# B.con03 V3 tetramer, sequence (P22629 37-163 limits assumed): as above
substance,measurement,setting,value
Biotin-GGGKQLQARVLAVERYLKDQQLLGIWGCSGKLICTTAV (cysteine pairing not given here) [gp41 ID tetramer],binding to mAb cell line,7B2 cells,bound
same,koff,[1],1.1 s^−1 × 10^−3
same,kon,[1],1.2 M^−1s^−1 × 10^3
same,binding to antibody-coated beads,mAb 7B2 on beads,bound only to mAb 7B2
"QQEKNEQELLELDKAASLWN (QQEKNEQELLELDKAASLWN; also: tetramer with streptavidin) [A15, alanine substituted gp41 MPER tetramer]",binding to 2F5 mAb,2F5 mAb,eliminated binding
7B2 (antibody),koff,gp41 ID tetramer,0.0011 s⁻¹
same,kon,gp41 ID tetramer,1200 M⁻¹ s⁻¹
"QQEKNEQELLELDKWASAWN (Biotin-GGGQQEKNEQELLELDKWASAWN; also: tetramer with streptavidin) [A18, alanine substituted gp41 MPER tetramer]",binding to non-neutralizing mAb 13H11,13H11 mAb,significantly reduced or eliminated binding
Biotin-GGGTRPNNNTRKSIHIGPGRAFYTTGEIIGDIRQAH [B.con03 V3 tetramer],binding to mAb cell line,F39F cells,bound
same,koff,mAb F39F (anti-gp120 V3),0.65 s^−1 × 10^−3
same,kon,mAb F39F (anti-gp120 V3),83.4 M^−1s^−1 × 10^3
same,binding to antibody-coated beads,[2],bound to both V3 loop mAbs 7B9 and F39F
F39F (antibody),koff,B.con03 V3 tetramer,0.00065 s⁻¹
same,kon,B.con03 V3 tetramer,83400 M⁻¹ s⁻¹
same,koff,62.19 V3 tetramer [3],0.0006 s⁻¹
same,kon,62.19 V3 tetramer [3],60500 M⁻¹ s⁻¹
same,% of cells in the tetramer-positive quadrant,62.19 V3 tetramer [4],6%
same,% of cells positive for both tetramer and anti-IgG,62.19 V3 tetramer [4],6.34% and 6.22% and 6.05%
"QQEKNEQELLELDAWASLWN (QQEKNEQELLELDAWASLWN; also: tetramer with streptavidin) [A14, alanine substituted gp41 MPER tetramer]",binding to non-neutralizing mAb 13H11,13H11 mAb,significantly reduced or eliminated binding
Biotin-GGGQLDSIQKEVYQLGRQLVWCTARLATKLVGKACGIL (cysteine pairing not given here) [gp41 ID scrambled tetramer],binding to mAb cell line,7B2 cells,higher background
same,binding to antibody-coated beads,mAb 7B2 on beads,higher background
"QQEKNEQELLELAKWASLWN (QQEKNEQELLELAKWASLWN; also: tetramer with streptavidin) [A13, alanine substituted gp41 MPER tetramer]",binding to 2F5 mAb,2F5 mAb,eliminated binding
Biotin-GGGNKEQDQAEESLQLWEKLNWL [gp41 MPER scrambled tetramer],% of subset binding tetramer ± SEM,"[5]; C57BL/6, Bone marrow, Immature",0.10 ± 0.02%
same,% of subset binding tetramer ± SEM,"[5]; C57BL/6, Bone marrow, MF",0.09 ± 0.02%
same,% of subset binding tetramer ± SEM,"[5]; C57BL/6, Bone marrow, Pro/pre",0.06 ± 0.01%
same,% of subset binding tetramer ± SEM,"[5]; C57BL/6, Bone marrow, T1",0.12 ± 0.02%
same,% of subset binding tetramer ± SEM,"[5]; C57BL/6, Bone marrow, T2",0.11 ± 0.01%
same,% of subset binding tetramer ± SEM,"[5]; C57BL/6, Peritoneum, B1a",0.14 ± 0.03%
same,% of subset binding tetramer ± SEM,"[5]; C57BL/6, Peritoneum, B1b",0.13 ± 0.02%
same,% of subset binding tetramer ± SEM,"[5]; C57BL/6, Peritoneum, B2",0.15 ± 0.03%
same,% of subset binding tetramer ± SEM,"[5]; C57BL/6, Spleen, MF",0.11 ± 0.02%
same,% of subset binding tetramer ± SEM,"[5]; C57BL/6, Spleen, MZ",0.09 ± 0.01%
same,% of subset binding tetramer ± SEM,"[5]; C57BL/6, Spleen, T1",0.08 ± 0.01%
same,% of subset binding tetramer ± SEM,"[5]; C57BL/6, Spleen, T2",0.10 ± 0.02%
same,binding to total naïve splenic B cells,[6],Negligible binding
"QQEKNEQELLELDKWASLWA (QQEKNEQELLELDKWASLWA; also: tetramer with streptavidin) [A20, alanine substituted gp41 MPER tetramer]",binding to non-neutralizing mAb 13H11,13H11 mAb,significantly reduced or eliminated binding
2F5 (antibody),koff,gp41 MPER tetramer,0.00037 s⁻¹
same,kon,gp41 MPER tetramer,174000 M⁻¹ s⁻¹
